Test system: Tribonema sp. CCAP880/2
Assay: Poison Plate Assay (algal growth inhibition, MIC and synergy index)
Type: cell-based
Details: 336 h, BG11 liquid medium, 24-well plates, 21° C., evaluation after 2 weeks of exposure, total ppm of combination at given ratio (I) to (II), read-out: MIC-values in ppm (minimum inhibitory concentration)
Description: • General procedure: to each well of a 24-well microtiter plate, 1990 μl BG11 medium containing the test compounds in one of the concentrations of a dose series is added. The liquid freshwater mineral medium is inoculated by adding an aliquot of an actively growing, 3 week old liquid BG11 culture of algae and incubated at 21° C., 65% relative humidity, 1000 Lux 16 hr/day. The growth is evaluated after two weeks. • Test compounds: 4-bromo-2-(4-chloro-phenyl)-5-(trifluoromethyl)-1H-pyrrole-3-carbonitrile as component (I) butylBIT as component (II); • Stock solution: 8000 and 80.000 ppm in DMSO
• Test combinations: • Concentrations: 1.6-1.2-0.9-0.68-0.51-0.38-0.29-0.21-0.16-0.12-0.09-0.07 ppm • Culture medium: algae: BG 11 liquid mineral medium • Experimental set up: 24-well plates • Species of algae: Tribonema sp. CCAP880/2 • Inoculum: algae: […] of a 1/10 dilution in BG 11 of a two week old culture • Culture conditions: 21° C., 65% relative humidity, 1000 lux, 16 hour photoperiod • Evaluation: algae: after 2 weeks of exposure
Synergism between component (I) and one of the components (II) was determined by a commonly used and accepted method described by Kull F. C. et al. in Applied Microbiology, 9, 538-541 (1961) using the Synergy Index, which is calculated as follows for two compounds A and B: […]

## CCCCn1sc2ccccc2c1=O [(I) + (II) 0 + 100, 2-butyl-1,2-benzisothiazol-3(2H)one]
  MIC: 2.1 µg/mL
